# Measured values taken from PubChem BioAssay (NCI).
# Several values for one entry are separate records, joined by “and”; a condition that tells them apart may be missing. Equal entries are not always repeated.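 Method: 48-hour compound exposure of cells in 96-well plates, five concentrations, linear interpolation of endpoints. GI50: concentration for 50% inhibition of growth. TGI marks complete inhibition of growth.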
# Columns and labels:
# Test in all cases: DTP human tumour cell line panel, 48 h
# NCI-H226 lung = tested on: NCI-H226 lung
# MALME-3M melanoma = tested on: MALME-3M melanoma
# UACC-62 melanoma = tested on: UACC-62 melanoma
# SNB-19 CNS = tested on: SNB-19 CNS
# SK-MEL-5 melanoma = tested on: SK-MEL-5 melanoma
# M14 melanoma = tested on: M14 melanoma
# SK-MEL-2 melanoma = tested on: SK-MEL-2 melanoma
# RXF 393 renal = tested on: RXF 393 renal
# NCI/ADR-RES ovarian = tested on: NCI/ADR-RES ovarian
# OVCAR-3 ovarian = tested on: OVCAR-3 ovarian
SMILES,TGI (NCI-H226 lung),TGI (MALME-3M melanoma),TGI (UACC-62 melanoma),TGI (SNB-19 CNS) [µM],TGI (SK-MEL-5 melanoma),TGI (M14 melanoma),TGI (SK-MEL-2 melanoma),TGI (RXF 393 renal),TGI (NCI/ADR-RES ovarian),TGI (OVCAR-3 ovarian),GI50 (NCI-H226 lung) [µM],GI50 (MALME-3M melanoma) [µM],GI50 (UACC-62 melanoma) [µM],GI50 (SNB-19 CNS) [µM],GI50 (SK-MEL-5 melanoma) [µM],GI50 (M14 melanoma) [µM],GI50 (RXF 393 renal) [µM],GI50 (NCI/ADR-RES ovarian) [µM],GI50 (OVCAR-3 ovarian) [µM],GI50 (SK-MEL-2 melanoma) [µM]
Cc1cn(S(=O)(=O)c2ccccc2)c2c(OCc3ccccc3)cc(NS(C)(=O)=O)cc12,> 94.4 µM,43.7 µM,> 89.2 µM,> 100,16.6 µM,> 100 µM,63.5 µM,> 100 µM,> 100 µM,> 75.7 µM,–,–,–,–,–,–,–,–,–,–
O=C(O)CCC(NC(=O)c1ccc(Nc2nc3cc(C(F)(F)F)ccc3nc2C(=O)O)cc1)C(=O)O (stereo not given),> 100 µM,> 100 µM,> 100 µM,> 100,> 100 µM,> 100 µM,> 100 µM,> 100 µM,> 100 µM,> 100 µM,–,–,–,–,–,–,–,–,–,–
CCC(NC1=NCCO1)c1cccs1 (stereo not given),37.1 µM,25.7 µM,30.8 µM,29.8,30.6 µM,33.3 µM,29.4 µM,33.2 µM,> 100 µM,30.6 µM,–,–,–,–,–,–,–,–,–,–
Cc1ccc([N+](=O)[O-])c2c(NCC(O)CO)ccnc12 (stereo not given),> 100 µM,44.6 µM,> 100 µM,> 100,42.3 µM,> 100 µM,53.9 µM,> 100 µM,> 100 µM,> 100 µM,–,–,–,–,–,–,–,–,–,–
CN(C)/N=N/c1nc[nH]c1C(N)=O,–,> 1000 µM,> 98.6 µM and 363 µM,> 1000,96.2 µM and > 429 µM,> 1000 µM,74.1 µM and 396 µM,99.4 µM and > 165 µM,–,> 1000 µM,140,243,23.8,> 85.3,120,92.8,93.3,232,101,–
Cn1c(O)c(C=Nc2ccccc2Cl)c(=O)n(C)c1=O,> 100 µM,> 100 µM,> 100 µM,78.4,> 100 µM,48.9 µM,41.1 µM,45.4 µM,> 100 µM,49.5 µM,–,–,–,–,–,–,–,–,–,–
C=C1CN(C2=NCCO2)C1,> 100 µM,> 100 µM,> 100 µM,> 100,> 100 µM,> 100 µM,> 100 µM,> 100 µM,> 100 µM,> 100 µM,–,–,–,–,–,–,–,–,–,–
CCOC(=O)/C=C(\C(=O)OCC)n1ccc(=O)[nH]c1=O,> 39.1 µM,24.2 µM,31.3 µM,> 100,> 56.7 µM,31.4 µM,50 µM,24.6 µM,> 93 µM,26.1 µM,–,–,–,–,–,–,–,–,–,–
COc1ccc(N2NC(c3ccccc3)(c3ccccc3)C(C)C2=O)cc1 (stereo not given),> 100 µM,> 100 µM,> 100 µM,> 100,> 100 µM,> 100 µM,> 100 µM,> 100 µM,> 100 µM,> 100 µM,–,–,–,–,–,–,–,–,–,–
CN(Cc1cc(Cl)c(Cl)cc1NC(=O)CN)[C@H]1CCCC[C@@H]1N1CCCC1,> 100 µM,33.6 µM,31.5 µM,> 100,32.1 µM,33.2 µM,31.9 µM,> 100 µM,> 100 µM,> 100 µM,–,–,–,–,–,–,–,–,–,–
COc1ccc(-c2nn(-c3ccc(NC(=O)Nc4ccc(Cl)c(C(F)(F)F)c4)cc3)cc2-c2ccncc2)cc1Cl,8.78 µM,5.09 µM,2.75 µM,11,2.82 µM,3.13 µM,3.75 µM,2.19 µM,> 100 µM,6.14 µM,2.59,1.59,1.33,2.35,1.5,1.49,0.74,2.4,1.67,1.74
C=C(C(=O)O[C@H]1C(=O)C2=C(C)CCC3C(=C)C(=O)O[C@@H]3C2[C@]1(C)O)C1CC[C@]2(C)CCCC(=C)[C@H]2C1 (stereo not given in full),16 µM and 36.6 µM,16.3 µM and 31.1 µM,9.79 µM and 31.6 µM,26.6,15.8 µM and 29.7 µM,12.3 µM and 20.3 µM,20.3 µM and 23.5 µM,2.52 µM and 3.65 µM,33.6 µM and > 23.8 µM,9.84 µM and 9.06 µM,6.81,15.5,16.9,–,8.45,5.74,1.79,8.52,3.39,–
O=c1ccc2ccc(O)cc2o1,> 100 µM,> 100 µM,> 100 µM,> 100,> 100 µM,> 100 µM,> 100 µM,> 100 µM,> 100 µM,> 100 µM,–,–,–,–,–,–,–,–,–,–
C[C@H]1COC2=C1C(=O)C(=O)c1c2ccc2c1CCCC2(C)C,24.1 µM,2.07 µM,8.2 µM,66.4,1.43 µM,3.15 µM,15.3 µM,55.6 µM,24 µM,5.92 µM,–,–,–,–,–,–,–,–,–,–
CC(=O)OC1COC(Nc2nc(N)n(C)c(=O)c2N=O)C(OC(C)=O)C1OC(C)=O (stereo not given),> 10 µM,> 10 µM,> 10 µM,> 10,> 10 µM,> 10 µM,> 10 µM,> 10 µM,> 10 µM,> 10 µM,–,–,–,–,–,–,–,–,–,–
Cc1sc2nc3n(c(=O)c2c1C)N=CN(c1ccc(F)cc1)C3,> 100 µM,57.2 µM,> 100 µM,> 100,> 100 µM,> 100 µM,> 100 µM,> 100 µM,> 100 µM,> 100 µM,–,–,–,–,–,–,–,–,–,–
